Measured values as given in patent US11939299B1, “4-((2-(2-(2-(4-methoxyphenyl)-4,5-diphenyl-1H-imidazol-1-yl)acetyl)hydrazono)methyl)benzoic acid as an anti-cancer compound” (KING FAISAL UNIVERSITY, priority 2023, dated 2024).

Assays:
Assay type in all cases: cell-based
[1] = test system: MCF7; assay: Percentage growth inhibition of in vitro subpanel tumor cell lines, breast cancer; conditions: Homo sapiens, 0.01 mM, read-out: Percentage growth inhibition (GI %)
Protocol: (§1) The anticancer activity of 4-((2-(2-(2-(4-Methoxyphenyl)-4,5-diphenyl-1H-imidazol-1-yl)acetyl)hydrazono)methyl)benzoic acid was assessed against leukemia, non-small cell lung cancer, colon cancer, central nervous system (CNS) cancer, melanoma, ovarian cancer, renal cancer, prostate cancer, and breast cancer.
(§2) Percentage growth inhibition (GI %) of in vitro subpanel tumor cell lines at 0.01 mM concentration for compound 4-((2-(2-(2-(4-Methoxyphenyl)-4,5-diphenyl-1H-imidazol-1-yl)acetyl)hydrazono)methyl)benzoic acid (Labeled as AE21 in the table) can be seen in Table 1 below.

[2] = test system: HS 578T; assay: as above; conditions: Homo sapiens; HS 578T (Breast Cancer), 0.01 mM; read-out: Percentage growth inhibition (GI %)
Protocol: as §1, §2

[3] = test system: PC-3; assay: Percentage growth inhibition of in vitro subpanel tumor cell lines, prostate cancer; conditions: Homo sapiens; PC-3 (Prostate Cancer), 0.01 mM; read-out: Percentage growth inhibition (GI %)
Protocol: as §1, §2

[4] = test system: RPMI-8226; assay: Percentage growth inhibition of in vitro subpanel tumor cell lines, leukemia; conditions: Homo sapiens; RPMI-8226 (Leukemia), 0.01 mM; read-out: Percentage growth inhibition (GI %)
Protocol: as §1, §2

[5] = test system: CCRF-CEM; assay: as above; conditions: Homo sapiens, 0.01 mM, read-out: Percentage growth inhibition (GI %)
Protocol: as §1, §2

[6] = test system: MOLT-4; assay: as above; conditions: Homo sapiens; MOLT-4 (Leukemia), 0.01 mM; read-out: Percentage growth inhibition (GI %)
Protocol: as §1, §2

[7] = test system: OVCAR-4; assay: Percentage growth inhibition of in vitro subpanel tumor cell lines, ovarian cancer; conditions: Homo sapiens; OVCAR-4 (Ovarian Cancer), 0.01 mM; read-out: Percentage growth inhibition (GI %)
Protocol: as §1, §2

[8] = test system: SF-295; assay: Percentage growth inhibition of in vitro subpanel tumor cell lines, CNS cancer; conditions: Homo sapiens; SF-295 (CNS Cancer), 0.01 mM; read-out: Percentage growth inhibition (GI %)
Protocol: as §1, §2

[9] = test system: SNB-75; assay: as above; conditions: Homo sapiens; SNB-75 (CNS Cancer), 0.01 mM; read-out: Percentage growth inhibition (GI %)
Protocol: as §1, §2

[10] = test system: tumor cell lines; assay: Anticancer activity against tumor cell lines (panel, overall statement); conditions: some tumor cell lines, 0.01 mM concentration
Protocol: as §1, §2

[11] = test system: MDA-MB-435; assay: Percentage growth inhibition of in vitro subpanel tumor cell lines, melanoma; conditions: Homo sapiens; MDA-MB-435 (Melanoma), 0.01 mM; read-out: Percentage growth inhibition (GI %)
Protocol: as §1, §2

[12] = test system: LOX IMVI; assay: as above; conditions: Homo sapiens, 0.01 mM, read-out: Percentage growth inhibition (GI %)
Protocol: as §1, §2

[13] = test system: SK-MEL-5; assay: as above; conditions: Homo sapiens; SK-MEL-5 (Melanoma), 0.01 mM; read-out: Percentage growth inhibition (GI %)
Protocol: as §1, §2

[14] = test system: UO-31; assay: Percentage growth inhibition of in vitro subpanel tumor cell lines, renal cancer; conditions: Homo sapiens; UO-31 (Renal Cancer), 0.01 mM; read-out: Percentage growth inhibition (GI %)
Protocol: as §1, §2

[15] = test system: A498; assay: as above; conditions: Homo sapiens, 0.01 mM, read-out: Percentage growth inhibition (GI %)
Protocol: as §1, §2

[16] = test system: CAKI-1; assay: as above; conditions: Homo sapiens; CAKI-1 (Renal Cancer), 0.01 mM; read-out: Percentage growth inhibition (GI %)
Protocol: as §1, §2

[17] = test system: HCT-15; assay: Percentage growth inhibition of in vitro subpanel tumor cell lines, colon cancer; conditions: Homo sapiens; HCT-15 (Colon Cancer), 0.01 mM; read-out: Percentage growth inhibition (GI %)
Protocol: as §1, §2

[18] = test system: NCI-H226; assay: Percentage growth inhibition of in vitro subpanel tumor cell lines, non-small cell lung cancer; conditions: Homo sapiens, 0.01 mM, read-out: Percentage growth inhibition (GI %)
Protocol: as §1, §2

[19] = test system: NCI-H322M; assay: as above; conditions: Homo sapiens, 0.01 mM, read-out: Percentage growth inhibition (GI %)
Protocol: as §1, §2

[20] = test system: NCI-H522; assay: as above; conditions: Homo sapiens, 0.01 mM, read-out: Percentage growth inhibition (GI %)
Protocol: as §1, §2

[21] = test system: NCI-H23; assay: as above; conditions: Homo sapiens, 0.01 mM, read-out: Percentage growth inhibition (GI %)
Protocol: as §1, §2

[22] = test system: EKVX; assay: as above; conditions: Homo sapiens, 0.01 mM, read-out: Percentage growth inhibition (GI %)
Protocol: as §1, §2

For `COc1ccc(-c2nc(-c3ccccc3)c(-c3ccccc3)n2CC(=O)N/N=C/c2ccc(C(=O)O)cc2)cc1` [AE21, 4-((2-(2-(2-(4-Methoxyphenyl)-4,5-diphenyl-1H-imidazol-1-yl)acetyl)hydrazono)methyl)benzoic acid], the inhibition at 10 µM [1] was 13.4%, the inhibition at 10 µM [2] was 18.6% and the inhibition at 10 µM [3] was 2.68%. It also gave an inhibition at 10 µM [4] of 0.34%, an inhibition at 10 µM [5] of 2.61% and an inhibition at 10 µM [6] of 4.6%. For the same compound, the inhibition at 10 µM [7] was 13.7%, the inhibition at 10 µM [8] was 5.54% and the inhibition at 10 µM [9] was 18.9%. The anticancer activity [10] was “moderate efficiency”, the inhibition at 10 µM [11] was 9.17% and the inhibition at 10 µM [12] was 5.6%. It also gave an inhibition at 10 µM [13] of 1.29%, an inhibition at 10 µM [14] of 0.61% and an inhibition at 10 µM [15] of 13.5%. The inhibition at 10 µM [16] was 6.23%, the inhibition at 10 µM [17] was 3.82% and the inhibition at 10 µM [18] was 6.62%. The inhibition at 10 µM [19] was 0.85%, the inhibition at 10 µM [20] was 12.4% and the inhibition at 10 µM [21] was 4.19%. For the same compound, the inhibition at 10 µM [22] was 10.3%.
